Laboratory results from paper PMC4971072, “Chemically Homogenous Compounds with Antagonistic Properties at All α1-Adrenoceptor Subtypes but not β1-Adrenoceptor Attenuate Adrenaline-Induced Arrhythmia in Rats” (Frontiers in Pharmacology, 2016).

Tests used:
[1] = target: T1, α1A-adrenoceptors (Rattus norvegicus, UniProt P43140); experiment: Functional bioassay, isolated rat tail artery, noradrenaline contraction; type: biochemical; conditions: noradrenaline as agonist
T1 construct: the middle part of the ventral caudal artery was removed; from tissue; host or cells: isolated rat tail (ventral caudal) artery rings
T1 sequence (P43140 1-466): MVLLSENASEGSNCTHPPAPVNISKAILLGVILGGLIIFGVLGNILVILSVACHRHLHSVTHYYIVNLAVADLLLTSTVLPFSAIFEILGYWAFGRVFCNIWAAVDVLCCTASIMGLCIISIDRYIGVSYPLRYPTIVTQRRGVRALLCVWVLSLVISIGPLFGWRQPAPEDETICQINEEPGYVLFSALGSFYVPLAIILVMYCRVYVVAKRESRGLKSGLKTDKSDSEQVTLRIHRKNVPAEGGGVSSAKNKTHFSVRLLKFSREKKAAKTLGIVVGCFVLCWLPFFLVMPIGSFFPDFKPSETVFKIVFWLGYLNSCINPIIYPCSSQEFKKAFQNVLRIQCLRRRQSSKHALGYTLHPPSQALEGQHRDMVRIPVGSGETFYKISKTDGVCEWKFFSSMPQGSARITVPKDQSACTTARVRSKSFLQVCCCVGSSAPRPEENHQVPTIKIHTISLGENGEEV
Protocol: The isolated artery, cut into ~4 mm long rings, was then horizontally put up between two stainless steel hooks (diameter 0.15 mm). One hook was fastened to the bottom of the chamber and the other to an isometric FDT10-A force displacement transducer (DMT Model 750TOBS, Denmark), linked with Powerlab 4/26 analyzer (ADInstruments), and processed by LabChart 7 software. […] The initial optimal tissues tension was set at 0.75 g. Chloroethylclonidine (3 μM) as the preferential α1B-adrenoreceptor alkylating agent was used during incubation and after 30 min it was completely washed off. Through 100 min of equilibration tissues were stimulated with noradrenaline (1 μM) four times with washing out until the contractile response become constant. Two cumulative concentration-response curves to noradrenaline, at an interval of 60 min, were established on each arterial ring both in the presence and absence of antagonist. The incubation with antagonists went on for 30 min. The experiments were carried out in the constant presence of yohimbine (0.1 μM) and propranolol (1 μM) to block α2- and β-adrenoceptors, respectively in order to minimize the involvement of these adrenoceptors in the response to noradrenaline.
Data are means ± S.E.M. of at least 4 separate experiments. To establish Hill slopes for the agonist concentration–response curves and calculate EC50 values, curves were fitted to all the data by non-linear regression. The EC50 value in the presence and absence of antagonists was used to ascertain the concentration ratio (CR). Schild analysis was performed.

[2] = test system: lipid peroxidation in rat brain homogenate; experiment: Lipid peroxidation in rat brain homogenate (TBARS), antioxidant effect; type: biochemical; conditions: 10^−3 M
Protocol: The rat brain homogenate containing 10 mg tissue/ml was prepared in 0.9% saline. The rates of membrane lipid peroxidation were measured by the formation of thiobarbituric acid reactive substances (TBARS). Rat brain homogenates (1 ml) were incubated at 37°C for 5 min with 10 μl of a tested compound or vehicle. Lipid peroxidation was initiated by the addition of 50 μl of 0.5 mM FeCl2 and 50 μl of 2.0 mM ascorbic acid. After 30 min of incubation, the reaction was stopped by adding 0.1 ml of 0.2% butylated hydroxytoluene (BHT). Thiobarbituric acid reagent was then added and the mixture was heated for 15 min in a boiling water bath.

[3] = test system: normal ECG in rats; experiment: The effect on normal electrocardiogram in rats; type: in vivo, rat; conditions: anesthetized rats, i.p. at ED84
Protocol: The experiment was carried out to exclude the influence of tested compounds on normal ECG. […] The influence on QRS complex, PQ interval, heart rate (RR), and QTc interval was determined.

COc1ccccc1N1CCN(CCOCCOc2c(C)cccc2C)CC1.Cl [HBK-14, 1-[(2,6-dimethylphenoxy)ethoxyethyl]-4-(2-methoxyphenyl)piperazine hydrochloride]
Schild slope ± S.E.M., α1A [1]: 0.97 ± 0.15
Kb ([1]; read-out: pA2 ± S.E.M., α1A (converted)): 10.2 nM
inhibition of lipid peroxidation (in words) [2]: inactive
% reduction of absorbance (% antioxidant activity) ([2]; TBARs at 532 nm): −4.10%
Absorbance ([2]; TBARs at 532 nm): 0.939 ± 0.007
influence on ECG parameters (PQ interval, QRS complex, QTc interval) [3]: did not influence the ECG parameters
Beats/min (ECG) ([3]; 0 min (initial values)): 366.0 ± 10.8 Beats/min
PQ (ECG) ([3]; 0 min (initial values)): 47.1 ± 1.1 ms
QRS (ECG) ([3]; 0 min (initial values)): 26.1 ± 0.7 ms
QT (ECG) ([3]; 0 min (initial values)): 85.8 ± 1.3 ms
QTc (ECG, Bazett) ([3]; 0 min (initial values)): 211.7 ± 3.2 ms
Beats/min (ECG) ([3]; 5 min): 369.8 ± 10.0 Beats/min
PQ (ECG) ([3]; 5 min): 46.0 ± 1.0 ms
QRS (ECG) ([3]; 5 min): 25.8 ± 0.5 ms
QT (ECG) ([3]; 5 min): 85.0 ± 4.1 ms
QTc (ECG, Bazett) ([3]; 5 min): 209.2 ± 8.3 ms
Beats/min (ECG) ([3]; 10 min): 367.0 ± 9.9 Beats/min
PQ (ECG) ([3]; 10 min): 46.3 ± 0.9 ms
QRS (ECG) ([3]; 10 min): 27.6 ± 1.0 ms
QT (ECG) ([3]; 10 min): 88.7 ± 1.9 ms
QTc (ECG, Bazett) ([3]; 10 min): 214.8 ± 5.0 ms
Beats/min (ECG) ([3]; 15 min): 359.8 ± 9.5 Beats/min
PQ (ECG) ([3]; 15 min): 47.5 ± 1.3 ms
QRS (ECG) ([3]; 15 min): 27.0 ± 0.6 ms
QT (ECG) ([3]; 15 min): 89.0 ± 2.4 ms
QTc (ECG, Bazett) ([3]; 15 min): 212.9 ± 5.7 ms
Beats/min (ECG) ([3]; 20 min): 358.4 ± 11.4 Beats/min
PQ (ECG) ([3]; 20 min): 46.3 ± 1.0 ms
QRS (ECG) ([3]; 20 min): 26.3 ± 0.4 ms
QT (ECG) ([3]; 20 min): 88.2 ± 2.9 ms
QTc (ECG, Bazett) ([3]; 20 min): 212.5 ± 4.6 ms
Beats/min (ECG) ([3]; 30 min): 359.8 ± 9.6 Beats/min
PQ (ECG) ([3]; 30 min): 48.8 ± 1.9 ms
QRS (ECG) ([3]; 30 min): 26.7 ± 0.9 ms
QT (ECG) ([3]; 30 min): 89.6 ± 1.7 ms
QTc (ECG, Bazett) ([3]; 30 min): 214.1 ± 5.0 ms
Beats/min (ECG) ([3]; 40 min): 362.6 ± 11.9 Beats/min
PQ (ECG) ([3]; 40 min): 48.2 ± 2.1 ms
QRS (ECG) ([3]; 40 min): 26.1 ± 0.4 ms
QT (ECG) ([3]; 40 min): 89.0 ± 2.1 ms
QTc (ECG, Bazett) ([3]; 40 min): 214.1 ± 5.2 ms
Beats/min (ECG) ([3]; 50 min): 361.6 ± 12.6 Beats/min
PQ (ECG) ([3]; 50 min): 47.3 ± 1.6 ms
QRS (ECG) ([3]; 50 min): 26.7 ± 1.0 ms
QT (ECG) ([3]; 50 min): 87.9 ± 1.2 ms
QTc (ECG, Bazett) ([3]; 50 min): 210.9 ± 5.1 ms
Beats/min (ECG) ([3]; 60 min): 364.6 ± 11.2 Beats/min
PQ (ECG) ([3]; 60 min): 48.4 ± 0.9 ms
QRS (ECG) ([3]; 60 min): 27.5 ± 0.7 ms
QT (ECG) ([3]; 60 min): 89.5 ± 2.4 ms
QTc (ECG, Bazett) ([3]; 60 min): 214.1 ± 4.2 ms
